According to patent publication US7728043B2, “Methods for treatment of beta-amyloid protein-induced ocular disease” (priority 1999, dated 2010):
“Also recorded” adds a separate entry of the source.

Experiments:
[1] = tested on: PC12 cells; assay: MTT reduction assay, βA peptide-induced toxicity, PC12 cells; format: cell-based, rat
Method: (§1) The degree of βA insult was measured by 3-[4,5-dimethylthiazol-2-yl]-2,5-diphenyltetrazolium bromide (MTT) reduction assay. […] The detection of cell growth or cell death can be determined by observing the conversion of MTT to the colored product, MTT formazan, the concentration of which can be measured […] at 550 nm.
(§2) Cells were incubated in MTT solution (5 mg/ml) at 37° C. for 2 hours. During this time, cells were observed under a microscope every 15 min. Cells were incubated in Lysing buffer (100 μl) overnight at 37° C. Colorimetric determination of MTT reduction was made at 550 nm.
(§3) PC12 rat pheochromocytoma and IMR32 human neuroblastoma cells were obtained from the American Type Culture Collection (ATCC). HUVEC normal umbilical human vein endothelial cells were obtained from Clonetics (San Diego, Calif.). Cells were routinely cultured on a tissue culture plate (Corning, N.Y., N.Y.). PC12 cells were grown in high glucose Dulbecco's Modified Eagle Medium (DMEM), 10% horse serum, 5% fetal calf serum, and 1% penicillin/streptomycin. IMR32 cells were grown in 90% DMEM and 10% fetal calf serum with 1% penicillin/streptomycin. HUVEC cells were grown in EGM-2 Bullet Kit (Clonetics, San Diego, Calif.).
PC12 cells were cultured routinely on polystyrene-coated Corning tissue culture plates. […] The 96-well plates were coated with rat tail collagen (Boehringer Mannheim) in order to promote uniform PC12 cell attachment and growth.

[2] = tested on: IMR32 cells; assay: MTT reduction assay, βA peptide-induced toxicity, IMR32 cells; format: cell-based, human
Method: as §1, §2, §3

[3] = tested on: HUVEC cells; assay: MTT reduction assay, βA peptide-induced toxicity, HUVEC cells; format: cell-based, human
Method: as §1, §2, §3

[4] = Antioxidant assay, scavenging of DPPH free radicals; conditions: for Antioxidant activity (DPPH free radical scavenging), in words: optical density change of DPPH radicals at 515 nm
Method: Kim et al., Neurosci Lett 303, 57 (2001) and Barik et al., Free Radic Biol Med 39, 811 (2005).
Using an antioxidant assay, the antioxidant potency of the compounds of the invention was evaluated. 1,1-Diphenyl-2-picrylhydrazyl (DPPH) is known to generate stable free radicals in aqueous and ethanolic solutions. The ability of the compounds of the invention to scavenge these free radicals was measured by observing the optical density change of DPPH radicals at 515 nm. Kim et al., Neurosci Lett 303, 57 (2001) and Barik et al., Free Radic Biol Med 39, 811 (2005).
The samples were prepared in various concentrations (200, 20, 2.0, and 0.2 μg/ml) by serial dilution of a stock solution (5 mg/ml) and were tested by the following procedure. Reaction mixtures containing test compounds (dissolved in DMSO) and 300 μM DPPH ethanolic solution in 96-well microtiter plates were incubated at 37° C. for 30 min. and absorbance was measured at 515 nm. Percent inhibition by sample treatment was determined by comparison with a DMSO-treated […] control group. IC50 values were determined from percent inhibition by sample. IC50 values denote the concentration of the tested compound that was required to scavenge 50% of the DPPH free radicals.

[5] = tested on: primary cortical rat neuronal cells; assay: Protection of primary cortical neuronal cells against βA peptide (1-42) insult; format: cell-based; conditions: compound at 5 μg/ml; βA peptide (1-42) 10 μg/ml
Method: as §2
Primary cortical rat neuronal cells were obtained in the following manner. Dissociated primary neuronal cell cultures were established from 18-day-old Sprague-Dawley rat fetuses. The pups were delivered by caesarean section while the dam was anesthetized with ether. Hippocampal tissue from embryonic day 18 Sprague-Dawley rat pups was dissected and then rinsed in cold Ca^2+/Mg^2+-free Hank's balanced salt solution supplemented with 20 mM HEPES, 4.2 mM sodium bicarbonate, 1 mM pyruvate, and 3 mg/ml bovine serum albumin (BSA). Following gentle trituration of the tissue with a constricted pipette in cold buffer, two volumes of 10% fetal bovine serum (FBS) in DMEM were added to the suspension. After the suspension settled for 2 minutes, the supernatant was collected and centrifuged for 2 min. at 200×g. The cell pellets were resuspended in serum-free DMEM (pH 7.3), supplemented with 2.4 mg/ml BSA and a modification of Brewer's […] defined components (with 250 nM vitamin B12 and without catalase, glutathione, and superoxide dismutase). Cells were plated at a density of 15,000 cells/cm^2 and grown at 37° C. After 24 hours of incubation to allow cell attachment, the serum-containing medium was replaced by defined medium with DMEM/F12 containing bovine transferrin (100 μg/ml), bovine insulin (5 μg/ml), putrescine (0.1 mM), progesterone (10 nM), sodium selenite (30 nM), sodium pyruvate (1 mM), and potassium bicarbonate (15 mM). Cells maintained for extended periods of time were fed twice a week by replacing ⅓ of the medium with fresh medium.

[6] = tested on: cells treated with βA peptide; assay: Protection of cells from βA peptide insult, statements in words (MTT assay, cells not singled out); format: cell-based; conditions: for Protection of cells from βA peptide-induced toxicity, in words: MTT reduction assay, PC12, IMR32, HUVEC cells where named in the sentence; for Microscopic analysis of βA peptide treated cells (MTT formazan granules in the cytosole): synthesized curcuminoid compounds, compared with positive and negative control
Method: as §1, §2

[7] = Partition coefficient between water and octane alcohol (log P); format: physicochemical
Method: According to this example, the ability of the compounds of the invention to pass through the blood brain barrier was measured. The ability of compounds to cross the blood brain barrier is represented by the log of the partition coefficient (P) of a molecule of the invention between water and octane alcohol. […] Accordingly, the octane alcohol fraction contained more than 1000 times as much of the compounds as the water fraction. […] See Hau et al., Regul Toxicol Pharmacol 35, 273 (2002) and Salminen et al., J Pharm Biomed Anal 15, 469 (1997).

[8] = Table 1, turmeric-derived natural product compounds
[9] = Table 1, turmeric-derived natural product compounds, concentration for 50% cell viability
[10] = Table 1, turmeric-derived natural product compounds, scavenging 50% of DPPH free radicals
[11] = Table 2, synthesized curcuminoids
[12] = Table 2, synthesized curcuminoids, DPPH
[13] = Table 3, ginger-derived natural product compounds

SMILES	Anti-βA peptide(1-42) ED50 PC12 [1, 8]	Anti-βA peptide(25-35) ED50 PC12 [1, 9]	Anti-βA peptide(25-35) ED50 IMR32 [2, 8]	Anti-βA peptide(1-42) ED50 HUVEC [3, 8]	Anti-βA peptide(25-35) ED50 HUVEC [3, 8]	Antioxidant IC50 [4, 10]	Antioxidant activity (DPPH free radical scavenging), in words [4]	Protection of primary cortical neuronal cells against βA peptide (1-42) insult [5]	Protection of cells from βA peptide-induced toxicity, in words [6]	further results
COc1cc(C=CC(=O)CC(=O)C=Cc2ccc(O)cc2)ccc1O [Compound 2, 1-(4-hydroxy-3-methoxyphenyl)-7-(4-hydroxyphenyl)-1,6-heptadiene-3,5-dione]	5.0 µg/mL	4.0 µg/mL	4.0 µg/mL	5.0 µg/mL	4.5 µg/mL	36.2 µg/mL	strong antioxidant activity	protected	protected	
O=C(C=Cc1ccc(O)cc1)CC(=O)C=Cc1ccc(O)cc1 [Compound 3, 1,7-bis(4-hydroxyphenyl)-1,6-heptadiene-3,5-dione]	3.5 µg/mL	2.0 µg/mL	2.5 µg/mL	2.0 µg/mL	2.4 µg/mL	>200 µg/mL	significant antioxidant activity	protected	protected	Anti-βA peptide(1-42) ED50 PC12 [1, 11]: 4.5 µg/mL; Anti-βA peptide(25-35) ED50 PC12 [1, 11]: 3.0 µg/mL; Anti-βA peptide(1-42) ED50 IMR32 [2, 11]: 3.5 µg/mL; Anti-βA peptide(25-35) ED50 IMR32 [2, 11]: 3.0 µg/mL; Antioxidant IC50 [4, 12]: 32.6 µg/mL; logP [7]: 3.1; Microscopic analysis of βA peptide treated cells (MTT formazan granules in the cytosole) [6]: effectively protect
O=C(C=Cc1ccc(O)cc1)CC(=O)CCc1ccc(O)cc1 [Compound 4, 1,7-bis(4-hydroxyphenyl)-1-heptene-3,5-dione]	1.0 µg/mL	0.5 µg/mL	1.2 µg/mL	1.0 µg/mL	0.8 µg/mL	>200 µg/mL		protected	protected; also recorded: best protection	Anti-βA peptide(1-42) ED50 PC12 [1, 11]: 1.0 µg/mL; Anti-βA peptide(25-35) ED50 PC12 [1, 11]: 0.5 µg/mL; Anti-βA peptide(1-42) ED50 IMR32 [2, 11]: 2.0 µg/mL; Anti-βA peptide(25-35) ED50 IMR32 [2, 11]: 1.5 µg/mL; Antioxidant IC50 [4, 12]: >200 µg/mL; Microscopic analysis of βA peptide treated cells (MTT formazan granules in the cytosole) [6]: effectively protect
O=C(C=C(O)C=Cc1ccc(O)c(O)c1)CCc1ccc(O)cc1 [Compound 5]	3.0 µg/mL	2.5 µg/mL	1.5 µg/mL	1.5 µg/mL	2.0 µg/mL	>200 µg/mL		protected	protected	
COc1cc(/C=C/C(=O)COC(=O)/C=C/c2ccc(O)c(OC)c2)ccc1O [Compound 6, 4″-(3′″-methoxy-4′″-hydroxyphenyl)-2″-oxo-3″-enebutanyl 3-(3′-methoxy-4′-hydroxyphenyl)propenoate]	2.0 µg/mL	1.0 µg/mL	1.0 µg/mL	1.0 µg/mL	1.5 µg/mL	>200 µg/mL		protected	protected	
CCCCCCCC/C=C/C(=O)CCc1ccc(O)c(OC)c1 [Compound 13, [9]-shogaol]							None of these compounds exhibited significant antioxidant activity		effectively protected	Anti-βA peptide(1-42) ED50 PC12 [1, 13]: 4.0 µg/mL; Anti-βA peptide(25-35) ED50 PC12 [1, 13]: 3.0 µg/mL; Anti-βA peptide(25-35) ED50 IMR32 [2, 13]: 2.0 µg/mL; Anti-βA peptide(1-42) ED50 HUVEC [3, 13]: 8.0 µg/mL; Anti-βA peptide(25-35) ED50 HUVEC [3, 13]: 8.0 µg/mL
CCCCCC/C=C\CCCCCCCc1cccc(O)c1C(=O)O [Compound 15]							do not possess antioxidant properties		protect	Anti-βA peptide(1-42) ED50 PC12 ([1]; Table 4, ginkgo compounds): 2.0 µg/mL; Anti-βA peptide(25-35) ED50 PC12 ([1]; Table 4, ginkgo compounds): 3.0 µg/mL; Anti-βA peptide(1-42) ED50 IMR32 ([2]; Table 4, ginkgo compounds): 2.5 µg/mL; Anti-βA peptide(25-35) ED50 IMR32 ([2]; Table 4, ginkgo compounds): 3.5 µg/mL; Anti-βA peptide(1-42) ED50 HUVEC ([3]; Table 4, ginkgo compounds): 1.5 µg/mL; Anti-βA peptide(25-35) ED50 HUVEC ([3]; Table 4, ginkgo compounds): 5.0 µg/mL
